This note sets out measurements from patent US20230374025A1, “FGFR INHIBITOR COMPOUND AND USE THEREOF” (SHENZHEN KANGSU PHARMACEUTICAL TECHNOLOGY CO., LTD., priority 2021, published 2023).

Holding throughout (assay type): biochemical
In one assay the target is T1, FGFR1 V561M (Homo sapiens, UniProt P11362, V561M).
T1 construct: purchased Signalchem F04-13G
The assay can be described thus: Assay I: inhibitory activity against FGFR mutants (HTRF KinEASE-TK). The following applies: ATP 5 μM, substrate TK 1 μM. In outline:
(§1)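 HTRF KinEASE-TK on FGFR mutant kinases in buffer with 5 mM MgCl2, 1 mM DTT; compound 4-fold serial dilutions (2 mM DMSO start) preincubated 10 min, then TK-substrate-biotin/ATP, 50 min at room temperature. 665/615 nm ratio converted to % inhibition; IC50 from four-parameter fit.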

A further assay concerns the target T2, FGFR2 V564F (Homo sapiens, UniProt P21802, V564F).
T2 construct: purchased Signalchem F05-12FG
Described as above. The following applies: ATP 10 μM, substrate TK 1 μM. In outline:
as §1

Another assay deals with T3, FGFR3 V555M (Homo sapiens, UniProt P22607, V555M).
T3 construct: purchased Signalchem F06-12GG
T3 sequence (P22607 397-806 V555M limits assumed): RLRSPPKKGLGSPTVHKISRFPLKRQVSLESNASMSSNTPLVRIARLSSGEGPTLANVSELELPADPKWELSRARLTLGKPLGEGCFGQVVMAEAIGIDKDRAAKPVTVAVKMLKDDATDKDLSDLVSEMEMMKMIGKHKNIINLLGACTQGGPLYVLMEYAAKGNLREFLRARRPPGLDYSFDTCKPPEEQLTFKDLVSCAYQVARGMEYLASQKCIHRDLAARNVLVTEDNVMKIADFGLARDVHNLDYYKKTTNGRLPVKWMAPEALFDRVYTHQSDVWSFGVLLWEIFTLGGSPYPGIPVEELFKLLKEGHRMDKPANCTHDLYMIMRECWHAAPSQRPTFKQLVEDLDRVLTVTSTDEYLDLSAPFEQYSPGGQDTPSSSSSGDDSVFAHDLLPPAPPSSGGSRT
The description is as above. The settings on record: ATP 20 μM, substrate TK 1 μM. In outline:
as §1

The target of another assay is T4, VEGFR2 (Homo sapiens, UniProt P35968).
T4 construct: purchased Carna 08-191
T4 sequence (P35968 20-1356): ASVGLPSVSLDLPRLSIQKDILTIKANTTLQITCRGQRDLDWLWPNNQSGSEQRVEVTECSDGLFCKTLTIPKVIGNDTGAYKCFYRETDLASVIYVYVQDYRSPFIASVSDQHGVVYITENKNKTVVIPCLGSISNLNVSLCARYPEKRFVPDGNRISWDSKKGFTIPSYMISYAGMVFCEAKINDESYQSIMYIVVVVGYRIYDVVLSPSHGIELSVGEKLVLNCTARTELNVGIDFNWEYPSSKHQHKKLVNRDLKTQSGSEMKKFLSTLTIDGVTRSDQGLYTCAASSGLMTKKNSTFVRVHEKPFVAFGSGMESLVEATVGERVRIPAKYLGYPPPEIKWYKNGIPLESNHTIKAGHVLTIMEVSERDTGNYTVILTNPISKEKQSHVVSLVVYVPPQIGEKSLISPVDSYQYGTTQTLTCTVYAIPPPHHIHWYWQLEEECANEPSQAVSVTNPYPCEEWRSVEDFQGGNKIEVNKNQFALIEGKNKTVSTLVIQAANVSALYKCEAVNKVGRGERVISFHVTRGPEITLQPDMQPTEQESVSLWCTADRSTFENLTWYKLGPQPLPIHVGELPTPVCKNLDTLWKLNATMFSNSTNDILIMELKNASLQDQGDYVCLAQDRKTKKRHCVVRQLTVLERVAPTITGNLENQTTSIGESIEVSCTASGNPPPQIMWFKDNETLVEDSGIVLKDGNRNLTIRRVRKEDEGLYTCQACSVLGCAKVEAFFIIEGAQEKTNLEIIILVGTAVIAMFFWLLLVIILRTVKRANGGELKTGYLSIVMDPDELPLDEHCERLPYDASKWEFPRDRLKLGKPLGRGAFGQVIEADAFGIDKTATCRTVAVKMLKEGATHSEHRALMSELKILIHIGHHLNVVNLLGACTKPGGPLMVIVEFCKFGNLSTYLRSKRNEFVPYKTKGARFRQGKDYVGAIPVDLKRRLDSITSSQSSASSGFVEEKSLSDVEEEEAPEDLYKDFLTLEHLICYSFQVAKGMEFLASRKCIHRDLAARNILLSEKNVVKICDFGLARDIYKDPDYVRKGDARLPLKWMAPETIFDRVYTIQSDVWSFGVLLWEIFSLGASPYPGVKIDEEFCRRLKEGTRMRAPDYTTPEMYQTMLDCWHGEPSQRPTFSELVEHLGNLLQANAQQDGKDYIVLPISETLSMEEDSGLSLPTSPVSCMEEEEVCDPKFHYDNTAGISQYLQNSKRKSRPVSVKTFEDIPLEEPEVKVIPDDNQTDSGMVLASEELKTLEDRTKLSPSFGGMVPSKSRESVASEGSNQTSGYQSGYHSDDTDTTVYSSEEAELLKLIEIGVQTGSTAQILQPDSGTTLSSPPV
The assay can be described thus: Assay I: VEGFR2 kinase inhibition (HTRF KinEASE-TK). The following applies: ATP 5 μM, substrate TK 1 μM. Summed up: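 HTRF KinEASE-TK assay: kinase preincubated 10 min at room temperature with 4-fold compound dilutions (2 mM DMSO starting stock), then TK-substrate-biotin/ATP added for 50 min at room temperature in buffer with 5 mM MgCl2, 1 mM DTT. 665/615 nm ratio converted to % inhibition; IC50 by four-parameter fit.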

The next assay has as its target T5, FGFR1 (Homo sapiens, UniProt P11362).
T5 construct: purchased Carna 08-133
The assay can be described thus: Assay II: inhibitory activity against wild-type FGFR (HTRF KinEASE-TK). The settings on record: ATP 50 μM, substrate TK 1 μM. The protocol: (§2) Assay II: Determination of Inhibitory Activity Against Wild-Type FGFR
(§3) 1. Reagents and Equipment
(§4) 2. Experimental Steps PGP-5T
(§5) 2.1 Preparation of 1× Kinase Reaction Buffer:
(§6) 1× Kinase reaction buffer was formulated with 1× volume of 5× kinase reaction buffer and 4× volume of water; 5 mM MgCl2; and 1 mM DTT.
(§7) 2.3 Screening of Compounds:
(§8) 1. Diluting a compound 4-fold in a dilution plate with DMSO, with a starting compound concentration of 2 mM.
(§9) 2. Diluting the compound 40-fold into 1× kinase reaction buffer and shaking it on a shaker for 20 minutes.
(§10) 3. Formulating 2×FGFR1/FGFR2/FGFR3 with 1× of enzyme reaction buffer.
(§11) 4. Adding 2 μl FGFR1/FGFR2/FGFR3 kinase (formulated in step 3) to each well of the reaction plate.
(§12) 5. Adding 1 μl of the compound diluted in buffer to each well, sealing the plate with a sealing membrane and centrifuging the plate at 1000 g for 30 seconds and leaving it at room temperature for 10 minutes.
(§13) 6. Formulating 2.5×TK-substrate-biotin and ATP mixture with 1× enzyme reaction buffer and add 2 μl of K-substrate-biotin/ATP mixture to the reaction plate.
(§14) 7. Sealing the plate with a sealing membrane and centrifuging the plate at 1000 g for 30 seconds and allowing it to react at room temperature for 50 minutes.
(§15) 8. Formulating 4× Sa-XL 665 (250 nM) with HTRF assay buffer.
(§16) 9. Adding 5 μl Sa-XL 665 and 5 μl TK-Antibody-Cryptate to each well, centrifuging it at 1000 g for 30 seconds, and allowing it to react for 1 hour at room temperature.
(§17) 10. Reading fluorescence signals at 615 nm (Cryptate) and 665 nm (XL665) with Biotek.
(§18) 3.1 Calculation of the ratio for each well: the ratio was calculated as 665/615 nm.
(§19) 3.3 Calculation of IC50 and plotting of inhibition curves for the compounds.
(§20) The IC50 (half inhibition concentration) of a compound was obtained using the following non-linear fitting equation, wherein data analysis was performed using Graphpad 6.0 software.
(§21) Y=Bottom+(Top−Bottom)/(1+10^((Log IC50−X)*Hill Slope)) • X: log value of compound concentration; and Y: inhibition rate (% inh)
(§22) 3.4 Validation of Results
(§23) Data were exported from Envision and analyzed manually. The ratios were converted to inhibition rates and IC50 was calculated by Prism GraphPad 6.0 from the inhibition rates. IC50 was calculated again by the ratios to verify accuracy of the results.

In another assay the target is T6, FGFR2 (Homo sapiens, UniProt P21802).
T6 construct: purchased Carna 08-134
T6 sequence (P21802 22-821): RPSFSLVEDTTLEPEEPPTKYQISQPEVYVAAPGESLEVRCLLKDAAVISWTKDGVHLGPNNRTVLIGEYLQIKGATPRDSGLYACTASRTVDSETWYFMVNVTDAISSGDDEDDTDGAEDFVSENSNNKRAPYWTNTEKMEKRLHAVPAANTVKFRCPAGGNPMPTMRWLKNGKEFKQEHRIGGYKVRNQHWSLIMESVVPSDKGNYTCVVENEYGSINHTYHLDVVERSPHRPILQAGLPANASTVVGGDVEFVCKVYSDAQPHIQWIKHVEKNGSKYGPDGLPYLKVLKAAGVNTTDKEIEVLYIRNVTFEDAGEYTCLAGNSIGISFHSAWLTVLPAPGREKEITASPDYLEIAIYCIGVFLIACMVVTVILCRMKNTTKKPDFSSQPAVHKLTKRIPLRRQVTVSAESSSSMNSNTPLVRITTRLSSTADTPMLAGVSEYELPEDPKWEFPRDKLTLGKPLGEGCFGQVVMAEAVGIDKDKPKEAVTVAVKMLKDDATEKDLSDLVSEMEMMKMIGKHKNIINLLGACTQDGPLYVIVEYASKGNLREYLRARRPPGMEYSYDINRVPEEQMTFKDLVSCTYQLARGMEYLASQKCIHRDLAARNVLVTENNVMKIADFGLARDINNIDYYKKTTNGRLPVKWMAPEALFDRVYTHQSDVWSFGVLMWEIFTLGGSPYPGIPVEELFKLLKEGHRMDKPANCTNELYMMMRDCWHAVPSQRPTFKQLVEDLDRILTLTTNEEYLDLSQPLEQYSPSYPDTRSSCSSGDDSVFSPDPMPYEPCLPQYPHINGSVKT
The assay is described as above. The following applies: ATP 50 μM, substrate TK 1 μM. Here is the method: as §2, §3, §4, §5, §6, §7, §8, §9, §10, §11, §12, §13, §14, §15, §16, §17, §18, §19, §20, §21, §22, §23

The target in another assay is T7, FGFR3 (Homo sapiens, UniProt P22607).
T7 construct: purchased Carna 08-135
T7 sequence (P22607 23-806): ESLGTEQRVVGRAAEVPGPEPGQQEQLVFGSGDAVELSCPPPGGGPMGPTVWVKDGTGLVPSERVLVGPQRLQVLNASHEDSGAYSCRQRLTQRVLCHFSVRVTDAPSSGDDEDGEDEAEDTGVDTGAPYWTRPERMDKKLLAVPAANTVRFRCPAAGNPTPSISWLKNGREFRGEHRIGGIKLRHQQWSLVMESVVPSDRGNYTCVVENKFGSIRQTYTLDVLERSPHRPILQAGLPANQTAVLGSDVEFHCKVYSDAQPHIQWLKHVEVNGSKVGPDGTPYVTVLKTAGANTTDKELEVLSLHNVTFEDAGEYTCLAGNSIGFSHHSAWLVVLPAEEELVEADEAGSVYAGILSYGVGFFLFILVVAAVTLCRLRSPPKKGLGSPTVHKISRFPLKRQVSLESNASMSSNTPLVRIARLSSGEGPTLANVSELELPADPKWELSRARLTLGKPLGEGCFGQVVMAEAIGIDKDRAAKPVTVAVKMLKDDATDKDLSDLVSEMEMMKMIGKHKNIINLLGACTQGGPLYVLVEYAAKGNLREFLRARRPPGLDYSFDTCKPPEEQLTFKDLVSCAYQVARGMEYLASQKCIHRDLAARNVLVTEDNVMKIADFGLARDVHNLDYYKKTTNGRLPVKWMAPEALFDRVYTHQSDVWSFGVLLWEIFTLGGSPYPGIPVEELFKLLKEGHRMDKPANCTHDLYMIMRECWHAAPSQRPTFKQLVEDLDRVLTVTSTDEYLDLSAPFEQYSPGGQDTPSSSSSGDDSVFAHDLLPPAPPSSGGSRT
The assay is described as above. The following applies: ATP 50 μM, substrate TK 1 μM. The protocol:
as §2, §3, §4, §5, §6, §7, §8, §9, §10, §11, §12, §13, §14, §15, §16, §17, §18, §19, §20, §21, §22, §23

Structures are written as SMILES.

T2 sequence (P21802 22-821 V564F): as the sequence (P21802 22-821) above, with V543F counted along it
T1 sequence (P11362 22-822 V561M): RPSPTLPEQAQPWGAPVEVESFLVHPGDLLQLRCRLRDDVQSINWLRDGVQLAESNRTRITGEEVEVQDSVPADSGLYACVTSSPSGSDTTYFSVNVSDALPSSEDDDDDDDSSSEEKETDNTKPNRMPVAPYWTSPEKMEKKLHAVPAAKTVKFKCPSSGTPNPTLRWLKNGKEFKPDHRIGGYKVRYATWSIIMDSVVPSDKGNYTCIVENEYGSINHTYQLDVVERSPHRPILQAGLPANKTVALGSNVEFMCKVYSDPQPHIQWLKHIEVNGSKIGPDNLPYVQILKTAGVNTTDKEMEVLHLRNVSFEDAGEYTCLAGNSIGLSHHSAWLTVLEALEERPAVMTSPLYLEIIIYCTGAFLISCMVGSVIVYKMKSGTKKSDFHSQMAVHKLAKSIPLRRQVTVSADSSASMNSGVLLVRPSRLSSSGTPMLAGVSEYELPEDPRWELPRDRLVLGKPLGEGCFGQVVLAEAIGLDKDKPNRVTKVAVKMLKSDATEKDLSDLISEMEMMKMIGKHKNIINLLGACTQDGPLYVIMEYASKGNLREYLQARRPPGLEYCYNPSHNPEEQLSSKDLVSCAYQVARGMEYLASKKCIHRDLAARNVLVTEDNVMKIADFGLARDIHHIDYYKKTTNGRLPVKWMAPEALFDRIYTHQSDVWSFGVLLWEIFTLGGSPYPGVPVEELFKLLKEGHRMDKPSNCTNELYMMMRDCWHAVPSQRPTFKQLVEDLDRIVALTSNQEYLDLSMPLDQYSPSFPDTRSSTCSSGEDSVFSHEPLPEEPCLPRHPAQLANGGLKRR
T5 sequence (P11362 22-822): as the sequence (P11362 22-822 V561M) above, with M540V counted along it

In the case of `CC(Oc1ccc2[nH]nc(-c3nc4c([nH]3)CN(C(=O)N3CCN(C)CC3)C4)c2c1)c1c(Cl)cncc1Cl` (centres unmarked) [Compound 1, (2-(5-(1-(3,5-dichloropyridin-4-yl)ethoxy)-1H-indazol-3-yl)-4,6-dihydropyrrolo[3,4-d]imidazol-5(1H)-yl)(4-methylpiperazin-1-yl)ketone], the IC50 on FGFR1 V561M is 0.26 nM; at FGFR2 V564F it was 0.34 nM; at FGFR3 V555M, 0.34 nM; against VEGFR2 it was 1 nM; against FGFR1, 2.7 nM; against FGFR2, 2.9 nM. Half-maximal inhibition against FGFR3 (IC50) required 4.1 nM.

With `CC(Oc1ccc2[nH]nc(-c3nc4c([nH]3)CN(C(=O)N3CCN(C)CC3)CC4)c2c1)c1c(Cl)cncc1Cl` (centres unmarked) [Compound 5, (2-(5-(1-(3,5-dichloropyridin-4-yl)ethoxy)-1H-indazol-3-yl)-3,4,6,7-tetrahydro-5H-imidazo[4,5-c]pyridin-5-yl)(4-methylpiperazin-1-yl)ketone], the half-maximal inhibitory concentration (IC50) against FGFR1 V561M is 0.58 nM; on FGFR2 V564F, 0.36 nM; against FGFR3 V555M it was 0.23 nM; on VEGFR2, 0.75 nM; at FGFR1, 1.8 nM; against FGFR2, 2.1 nM. Besides, the IC50 at FGFR3 was determined as 3.8 nM.

In the case of `CC(Oc1ccc2[nH]nc(-c3nc4c([nH]3)CN(C(=O)N3CCOCC3)C4)c2c1)c1c(Cl)cncc1Cl` (centres unmarked) [Compound 8, (2-(5-(1-(3,5-dichloropyridin-4-yl)ethoxy)-1H-indazol-3-yl)-4,6-dihydropyrrolo[3,4-d]imidazol-5(1H)-yl)(morpholinyl)ketone], the IC50 on FGFR1 V561M amounted to 0.33 nM; against FGFR2 V564F, 0.36 nM; on FGFR3 V555M, 0.45 nM; against VEGFR2, 2.1 nM; against FGFR1 it was 4.1 nM; at FGFR2 it was 2.8 nM. The compound also came in with an IC50 at FGFR3 of 4.5 nM.

On to `CC(Oc1ccc2[nH]nc(-c3nc4c([nH]3)CN(C(=O)N3CC[C@H](O)C3)C4)c2c1)c1c(Cl)cncc1Cl` (stereo partly drawn) [Compound 10, (2-(5-(1-(3,5-dichloropyridin-4-yl)ethoxy)-1H-indazol-3-yl)-4,6-dihydropyrrolo[3,4-d]imidazol-5(1H)-yl)((S)-3-hydroxypyrrolidin-1-yl)ketone], for which the IC50 was 0.2 nM against FGFR1 V561M; 0.33 nM on FGFR2 V564F; 0.35 nM on FGFR3 V555M; 2.4 nM at VEGFR2; 3.1 nM against FGFR1; 2.2 nM at FGFR2. Further, the IC50 at FGFR3 is 3.4 nM.

Consider `CC(Oc1ccc2[nH]nc(-c3nc4c([nH]3)CN(C)C4)c2c1)c1c(Cl)cncc1Cl` (centres unmarked) [Compound 11, 5-(1-(3,5-dichloropyridin-4-yl)ethoxy)-3-(5-methyl-1,4,5,6-tetrahydropyrrolo[3,4-d]imidazol-2-yl)-1H-indazole], for which the IC50 amounted to 0.46 nM at FGFR1 V561M; 1.3 nM against FGFR2 V564F; 1.1 nM on FGFR3 V555M; 25.6 nM against VEGFR2; 1.7 nM on FGFR1; 0.95 nM on FGFR2. This compound yielded a half-inhibitory concentration (IC50) at FGFR3 of 0.6 nM.
